Entries after “also recorded” stand apart in the source; their conditions may differ.
Tests used:
[1] = excipient compatibility study with dry powder inhalation carriers; type: physicochemical
Description: Compatibility of epinephrine prodrugs Disobutyryl L-epinephrine (AQEP-09) and Dipivefrin was studied with common carriers used for dry powder inhalation applications. Lactose monohydrate, Lactose anhydrous and Mannitol were used for the stability evaluation. Mixtures of the micronized API and the carriers were tested under stability conditions, 25° C./60%RH and 40° C./75%RH.

[2] = particle size distribution of jet-milled (micronized) prodrugs; type: physicochemical; settings: feed rate 840 g/hr
Description: Both dipivefrin and Diisobutyryl L-epinephrine were micronized using the jet milling process using nitrogen. The effect of pressure and feed rates were determined. The particle sizes of the micronized material are shown in the Table 1 and micronized/milled material suitable for drug powder inhalation (2-5 μm) were manufactured.

[3] = pharmacokinetics of epinephrine in Beagle dogs after bolus inhalation of prodrugs or IM EpiPen; type: in vivo; settings: inhalation 0.4 vs 0.2 mg/kg (target 2×)
[4] = esterase hydrolysis assay in human BAL fluid (prodrug stability); type: in vitro ADME; settings: Human BAL fluid from 2 subjects; 1 μM; stabilizer sodium metabisulfite 8.9 mM; LC-MS
Description: Epinephrine prodrugs were evaluated. In vitro inhalation models were employed.
Hydrolysis of dipivefrin or AQEP-09 was studied in vitro in Human BAL fluid by measuring the epinephrine concentration. Frozen BAL fluid was used from 2 subjects. Compounds were incubated at 1 μM in the presence of a stabilizer (sodium metabisulfite, 8.9 mM). Samples were removed after stopping the enzyme reaction using NaF or SigmaFast at different timepoints. Samples were extracted and analyzed by LC-MS method. […] Less than 5% hydrolysis was observed.

[5] = tested on: 3D culture model (EpiAirways, MatTek) of human lung epithelial cells
Description: (§1) Epinephrine prodrugs were evaluated. In vitro inhalation models were employed. In particular, an esterase hydrolysis assay was employed using human branchoalveolar lavage (BAL) fluid to examine prodrug stability. A permeability assay using in vitro a 3D culture model (EpiAirways, MatTek) of human lung epithelial cells was also performed. The 3D culture system mimics the structure of lungs, allowing for study of the hydrolysis of prodrugs in the lungs by esterases and the systemic permeability data. The EpiAirway 3D culture includes a ciliated apical surface, mucociliary epithelium and microporous membrane.
In vitro permeability of the 3D culture was studied.
The Franz diffusion cell apparatus consists of two chambers separated by a membrane. The permeation studies were conducted using the 3D lung cell culture. The tissue membrane separates the donor compartment containing the prodrug and the receptor compartment containing the collection media whish was selected to provide sink conditions throughout the experiment.
(§2) Compounds were incubated at different concentrations (5 mM, 10 mM, and 50 mM). Cell viability was assessed by LDH Cytotoxicity Detection kit (Takara # MK401) and MTT tissue viability assay kit (MatTek, # MTT-100). Receiver media were removed at different timepoints, 0.5, 1, 2, 3, 4, 6 hrs to test permeability; Samples were extracted and analyzed by an LC-MS method.
(§3) Referring to FIGS. 3C-3D Dipivefrin and AQEP-09 toxicity and permeability using human lung epithelial cells was also studied in the EpiAirway model. Compounds were incubated at different concentrations (0.1 mM, 1 mM, 2 mM) and cell viability was assessed by LDH release assay and MTT assay. See, e.g., Aysun Adan, Yağmur Kiraz and Yusuf Baran, “Cell Proliferation and Cytotoxicity Assays”, Current Pharmaceutical Biotechnology (2016) 17: 1213, which is incorporated by reference in its entirety. Receiver media were removed at different timepoints, 1, 2, 3, 4 hrs to test permeability. Samples were extracted and analyzed by LC-MS method.

[6] = aerodynamic particle size of exposure aerosol (Aerodynamic Particle Sizer); type: physicochemical; settings: exposure aerosol of micronized powder
Excerpt: Mass median aerodynamic diameter (MMAD) of AQEP-09 was 1.57 μm (Geometric Standard Deviation (GSD) 1.74) and MMAD for Dipivefrin was 1.47 μm (GSD 2.63).

[7] = tested on: human lung epithelial cells; experiment: LDH cytotoxicity / release assay in EpiAirway 3D culture; type: cell-based; settings: for toxicity / cell viability in the LDH assay: 0.1 mM, 1 mM, 2 mM; for cell viability in the LDH assay: 5 mM, 10 mM, 50 mM
Description: as §1, §2, §3

[8] = stability in sodium metabisulfite; type: physicochemical
Excerpt: A prodrug can present improved hydrophobicity, better permeation, dose reduction, and enhanced speed of absorption. It can also provide alternative compositions with unique stability profiles. […] A prodrug that is not absorbed in the stomach can also avoid, minimize or eliminate the side effect of epigastric pain. Moreover, a prodrug can result in reduced adrenergic receptor binding, resulting in reduced variability of vasoconstriction and more stability.

[9] = Lactose Anhydrous, 25° C./60% RH, 0 weeks
[10] = Lactose Anhydrous, 25° C./60% RH, 2 weeks
[11] = Lactose Anhydrous, 25° C./60% RH, 4 weeks
[12] = Lactose Anhydrous, 40° C./75% RH, 0 weeks
[13] = Lactose Anhydrous, 40° C./75% RH, 2 weeks
[14] = Lactose Anhydrous, 40° C./75% RH, 4 weeks
[15] = Lactose Monohydrate, 25° C./60% RH, 0 weeks
[16] = Lactose Monohydrate, 25° C./60% RH, 2 weeks
[17] = Lactose Monohydrate, 25° C./60% RH, 4 weeks
[18] = Lactose Monohydrate, 40° C./75% RH, 0 weeks
[19] = Lactose Monohydrate, 40° C./75% RH, 2 weeks
[20] = Lactose Monohydrate, 40° C./75% RH, 4 weeks
[21] = Mannitol, 25° C./60% RH, 0 weeks
[22] = Mannitol, 25° C./60% RH, 2 weeks
[23] = Mannitol, 25° C./60% RH, 4 weeks
[24] = Mannitol, 40° C./75% RH, 0 weeks
[25] = Mannitol, 40° C./75% RH, 2 weeks
[26] = Mannitol, 40° C./75% RH, 4 weeks
[27] = nitrogen milling pressure 1.5 bar
[28] = nitrogen milling pressure 3.5 bar

SMILES	Assay (Percent Label Claim) [1, 9]	Assay (Percent Label Claim) [1, 10]	Assay (Percent Label Claim) [1, 11]	Assay (Percent Label Claim) [1, 12]	Assay (Percent Label Claim) [1, 13]	Assay (Percent Label Claim) [1, 14]	Assay (Percent Label Claim) [1, 15]	Assay (Percent Label Claim) [1, 16]	Assay (Percent Label Claim) [1, 17]	Assay (Percent Label Claim) [1, 18]	Assay (Percent Label Claim) [1, 19]	Assay (Percent Label Claim) [1, 20]	Assay (Percent Label Claim) [1, 21]	Assay (Percent Label Claim) [1, 22]	Assay (Percent Label Claim) [1, 23]	Assay (Percent Label Claim) [1, 24]	Assay (Percent Label Claim) [1, 25]	Assay (Percent Label Claim) [1, 26]	Particle size d10 [2, 27]	Particle size d50 [2, 27]	further results
CNCC(O)c1ccc(OC(=O)C(C)C)c(OC(=O)C(C)C)c1 [AQEP-09, Diisobutyryl L-epinephrine]	100%	103%	103%	100%	97%	87%	100%	100%	97%	100%	94%	83%	100%	96%	96%	100%	95%	84%	d10-10.30 μm	d50-55.70 μm	Particle size d90 [2, 27]: d90-132.75 μm; Particle size d10 [2, 28]: d10-0.46 μm; Particle size d50 [2, 28]: d50-1.12 μm; Particle size d90 [2, 28]: d90-2.37 μm; Overall dose response [3]: slightly less than dose proportional; hydrolysis to epinephrine [4]: minimal hydrolysis; permeability compared to Dipivefrin [5]: lower permeability; increase in dose that shows comparable permeability to Dipivefrin ([5]; human): 50%; GSD [6]: 1.74; MMAD [6]: 1.57 μm; toxicity / cell viability in the LDH assay [7]: did not show any toxicity; also recorded: no or less toxicity
CNCC(O)c1ccc(OC(=O)C(C)(C)C)c(OC(=O)C(C)(C)C)c1 (stereo not drawn) [Dipivefrin]	100%	100%	96%	100%	99%	95%	100%	101%	96%	100%	96%	81%	100%	101%	98%	100%	101%	95%	d10-0.91 μm	d50-6.24 μm	Particle size d90 [2, 27]: d90-13.18 μm; Particle size d10 [2, 28]: d10-0.53 μm; Particle size d50 [2, 28]: d50-1.27 μm; Particle size d90 [2, 28]: d90-2.92 μm; hydrolysis to epinephrine [4]: minimal hydrolysis; permeability in human lung model [5]: dose dependent permeability; GSD [6]: 2.63; MMAD [6]: 1.47 μm; stability in sodium metabisulfite [8]: unstable; toxicity / cell viability in the LDH assay [7]: lower cell viability; cell viability in the LDH assay ([7]; 6 h): cell viability was reduced at all doses; cell viability in the LDH assay ([7]; 24 hr): viability was improved

Source: patent publication US20220233471A1, “PRODRUG COMPOSITIONS AND METHODS OF TREATMENT” (AQUESTIVE THERAPEUTICS, INC., priority 2021, published 2022)
